# Test results as given in patent publication US20260297087A1, “Pyridoimidazolone Compounds, Preparation Thereof and Therapeutic Uses Thereof” (Sanofi, priority 2023, published 2026).
# Key:
# [1] = target: T1, ERK5 (Homo sapiens, UniProt Q13164); assay: Inhibition of Cellular ERK5 Activity (cell-based assay, MEF2 luciferase reporter in SN12C cells); settings: renal cancer cell line SN12C, doxycycline-induced MEKSDD, mean where repeated
# T1 construct: MEF2-luciferase reporter
# How it was run: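 SN12C cells carrying a MEF2-luciferase reporter and doxycycline-inducible (1 μg/ml) constitutively active MEK5DD, seeded 24 h before compound addition at 0.3–1000 nM (0.1% DMSO final). Luminescence read; IC50 is the concentration giving 50% signal reduction versus DMSO-treated cells.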
# [2] = target: T2, ERK5 (activated catalytic domain) (Homo sapiens, UniProt Q13164); assay: Cell-Free Assay of ERK5 Inhibition (Time-Resolved FRET, 4EBP1 peptide phosphorylation); format: biochemical; settings: ERK5 catalytic domain 4 nM, 1 mM ATP, 1 μM biotinylated 4EBP1 peptide, 30 min at 37° C.; mean where repeated; read-out: Cell-free assay (IC50 in nM)
# T2 construct: purchased CarnaBiosciences 04-146
# How it was run: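 Activated ERK5 catalytic domain at 4 nM preincubated 30 min at room temperature with compound, then 1 mM ATP and 1 μM biotinylated 4EBP1 (aa 30-52) peptide added for 30 min at 37° C. Phosphorylation detected by TR-FRET; IC50 versus DMSO control, repeats averaged.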
# T2 sequence (Q13164 55-347 limits assumed): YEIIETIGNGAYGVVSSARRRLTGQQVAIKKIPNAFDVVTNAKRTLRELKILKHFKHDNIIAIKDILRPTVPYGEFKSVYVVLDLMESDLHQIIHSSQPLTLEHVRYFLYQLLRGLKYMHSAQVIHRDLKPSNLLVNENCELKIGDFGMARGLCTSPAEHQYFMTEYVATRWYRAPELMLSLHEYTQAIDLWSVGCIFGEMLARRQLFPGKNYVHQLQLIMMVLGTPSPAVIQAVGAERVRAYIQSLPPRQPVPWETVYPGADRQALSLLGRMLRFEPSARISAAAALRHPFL
# T1 sequence (Q13164 whole entry): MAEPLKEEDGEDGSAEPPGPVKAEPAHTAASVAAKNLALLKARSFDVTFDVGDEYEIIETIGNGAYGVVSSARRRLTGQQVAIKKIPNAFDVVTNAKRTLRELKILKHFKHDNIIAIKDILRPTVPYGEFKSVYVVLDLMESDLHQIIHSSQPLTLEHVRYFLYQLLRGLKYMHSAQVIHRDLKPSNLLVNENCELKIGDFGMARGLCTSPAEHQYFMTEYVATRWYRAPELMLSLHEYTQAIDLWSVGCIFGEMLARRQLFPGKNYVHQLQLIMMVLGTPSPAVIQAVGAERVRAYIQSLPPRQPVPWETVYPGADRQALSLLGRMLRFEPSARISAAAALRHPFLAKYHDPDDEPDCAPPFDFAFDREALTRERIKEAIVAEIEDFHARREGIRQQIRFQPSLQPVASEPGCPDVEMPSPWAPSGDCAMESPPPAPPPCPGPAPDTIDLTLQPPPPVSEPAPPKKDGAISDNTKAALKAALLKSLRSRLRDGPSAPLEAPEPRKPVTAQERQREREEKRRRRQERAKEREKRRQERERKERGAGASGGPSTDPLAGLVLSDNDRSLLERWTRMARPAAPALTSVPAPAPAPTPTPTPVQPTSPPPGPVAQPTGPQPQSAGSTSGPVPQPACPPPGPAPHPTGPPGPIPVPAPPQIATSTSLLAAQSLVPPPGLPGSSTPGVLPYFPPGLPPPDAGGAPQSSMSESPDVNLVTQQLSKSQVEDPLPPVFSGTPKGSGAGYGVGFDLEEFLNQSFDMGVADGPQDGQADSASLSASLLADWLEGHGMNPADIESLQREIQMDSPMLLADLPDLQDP
IC50 [1] [nM],IC50 [2] [nM],Compound
68,48,"Nc1cc(OC(F)(F)F)ccc1C(=O)N1CCC(n2c(=O)[nH]c3ncc(C4CCOCC4)cc32)CC1 [Example 2, 1-[1-[2-amino-4-(trifluoromethoxy)benzoyl]-4-piperidyl]-6-tetrahydropyran-4-yl-3H-imidazo[4,5-b]pyridin-2-one]"
361,1620,"O=C(c1ccc(S(F)(F)(F)(F)F)cc1)N1CCC(n2c(=O)[nH]c3ncc(C4CCOCC4)cc32)C1 (racemic) [Example 50, (rac)-1-[1-[4-(pentafluoro-λ^6-sulfanyl)benzoyl]pyrrolidin-3-yl]-6-tetrahydropyran-4-yl-3H-imidazo[4,5-b]pyridin-2-one]"
168,78,"CN1CCC(c2cnc3[nH]c(=O)n(C4CCN(C(=O)c5ccc(OC(F)(F)F)cc5N)CC4)c3c2)CC1 [Example 54, 1-[1-[2-amino-4-(trifluoromethoxy)benzoyl]-4-piperidyl]-6-(1-methyl-4-piperidyl)-3H-imidazo[4,5-b]pyridin-2-one]"
